Structures are written as SMILES. Activity calls are given as the source filed them. The rule behind the calls is not given here. Some results are limits rather than exact numbers.

The results in this text go back to ChEMBL document CHEMBL2331470 (J Med Chem, 2013).

One test concerns the target T1, Histone deacetylase 8 (Homo sapiens, UniProt Q9BY41).
T1 sequence (Q9BY41 whole entry): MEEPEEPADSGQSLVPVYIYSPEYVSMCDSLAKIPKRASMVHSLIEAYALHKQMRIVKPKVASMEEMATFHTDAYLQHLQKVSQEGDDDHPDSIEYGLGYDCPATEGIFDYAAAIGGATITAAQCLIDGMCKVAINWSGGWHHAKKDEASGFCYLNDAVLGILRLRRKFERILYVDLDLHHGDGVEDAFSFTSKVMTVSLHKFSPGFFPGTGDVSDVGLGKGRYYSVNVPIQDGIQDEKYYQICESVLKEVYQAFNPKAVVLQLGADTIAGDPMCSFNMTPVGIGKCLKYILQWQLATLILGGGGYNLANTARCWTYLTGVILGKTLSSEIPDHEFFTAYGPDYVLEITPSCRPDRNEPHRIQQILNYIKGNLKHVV
Nature of the test: Inhibition of HDAC8 (unknown origin) assessed as fluorescence intensity measured after 60 mins incubation at room temperature by trypsin-free microfluidic lab-on-a-chip assay.

In a further test the target is Histone deacetylase 4 (Homo sapiens, UniProt P56524). Nature of the test: Inhibition of HDAC4 (unknown origin) assessed as fluorescence intensity measured after 60 mins incubation at room temperature by trypsin-free microfluidic lab-on-a-chip assay.
Histone deacetylase 4, sequence (P56524 whole entry): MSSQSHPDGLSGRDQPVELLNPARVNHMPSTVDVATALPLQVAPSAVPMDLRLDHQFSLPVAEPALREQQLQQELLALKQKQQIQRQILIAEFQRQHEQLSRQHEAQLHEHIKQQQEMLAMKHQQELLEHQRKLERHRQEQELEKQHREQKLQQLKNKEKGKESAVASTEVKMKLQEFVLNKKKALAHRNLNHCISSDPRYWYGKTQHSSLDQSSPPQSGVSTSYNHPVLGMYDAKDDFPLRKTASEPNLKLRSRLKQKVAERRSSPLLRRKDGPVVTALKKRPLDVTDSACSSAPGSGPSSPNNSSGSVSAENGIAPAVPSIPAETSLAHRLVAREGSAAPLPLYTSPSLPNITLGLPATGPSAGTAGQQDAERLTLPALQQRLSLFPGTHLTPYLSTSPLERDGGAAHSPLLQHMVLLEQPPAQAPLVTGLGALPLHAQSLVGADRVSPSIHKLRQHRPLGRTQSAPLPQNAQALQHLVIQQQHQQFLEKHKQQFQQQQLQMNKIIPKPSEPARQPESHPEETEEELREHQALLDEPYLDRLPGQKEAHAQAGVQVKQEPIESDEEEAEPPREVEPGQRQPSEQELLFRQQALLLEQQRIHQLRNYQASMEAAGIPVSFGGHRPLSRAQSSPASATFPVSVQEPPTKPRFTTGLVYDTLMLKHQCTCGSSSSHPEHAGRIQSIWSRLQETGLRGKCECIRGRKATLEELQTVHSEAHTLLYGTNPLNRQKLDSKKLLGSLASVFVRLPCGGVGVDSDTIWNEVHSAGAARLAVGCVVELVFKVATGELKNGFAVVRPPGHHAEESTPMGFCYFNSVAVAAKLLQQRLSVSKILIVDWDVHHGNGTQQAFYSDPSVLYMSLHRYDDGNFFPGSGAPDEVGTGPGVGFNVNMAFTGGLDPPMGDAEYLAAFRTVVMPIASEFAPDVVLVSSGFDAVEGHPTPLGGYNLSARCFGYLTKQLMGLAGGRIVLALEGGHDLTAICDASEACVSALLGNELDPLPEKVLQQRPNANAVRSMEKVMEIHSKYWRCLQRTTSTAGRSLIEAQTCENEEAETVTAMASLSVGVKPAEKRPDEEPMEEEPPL
The target of test [1] is T2, Histone deacetylase 3 (Homo sapiens, UniProt O15379). Nature of the test: Inhibition of HDAC3 in human HeLa cells assessed as increase in acetylated H3 at 30 uM measured after 24 hrs by Western blotting analysis. The class given is cell-based.
T2 sequence (O15379 whole entry): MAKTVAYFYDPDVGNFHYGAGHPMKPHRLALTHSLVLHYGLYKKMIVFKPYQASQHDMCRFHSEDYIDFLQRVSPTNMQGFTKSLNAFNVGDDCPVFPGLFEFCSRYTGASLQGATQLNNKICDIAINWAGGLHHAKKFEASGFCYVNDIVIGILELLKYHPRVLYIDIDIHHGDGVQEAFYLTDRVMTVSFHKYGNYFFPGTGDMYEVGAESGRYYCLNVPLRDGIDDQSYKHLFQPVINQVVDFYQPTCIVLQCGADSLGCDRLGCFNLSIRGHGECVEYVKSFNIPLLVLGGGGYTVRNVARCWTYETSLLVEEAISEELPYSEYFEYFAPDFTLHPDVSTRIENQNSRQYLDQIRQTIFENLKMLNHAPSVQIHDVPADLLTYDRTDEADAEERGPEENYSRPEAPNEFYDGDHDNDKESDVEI
Test [2] deals with T3, Protein deacetylase HDAC6 (Homo sapiens, UniProt Q9UBN7).
T3 sequence (Q9UBN7 whole entry): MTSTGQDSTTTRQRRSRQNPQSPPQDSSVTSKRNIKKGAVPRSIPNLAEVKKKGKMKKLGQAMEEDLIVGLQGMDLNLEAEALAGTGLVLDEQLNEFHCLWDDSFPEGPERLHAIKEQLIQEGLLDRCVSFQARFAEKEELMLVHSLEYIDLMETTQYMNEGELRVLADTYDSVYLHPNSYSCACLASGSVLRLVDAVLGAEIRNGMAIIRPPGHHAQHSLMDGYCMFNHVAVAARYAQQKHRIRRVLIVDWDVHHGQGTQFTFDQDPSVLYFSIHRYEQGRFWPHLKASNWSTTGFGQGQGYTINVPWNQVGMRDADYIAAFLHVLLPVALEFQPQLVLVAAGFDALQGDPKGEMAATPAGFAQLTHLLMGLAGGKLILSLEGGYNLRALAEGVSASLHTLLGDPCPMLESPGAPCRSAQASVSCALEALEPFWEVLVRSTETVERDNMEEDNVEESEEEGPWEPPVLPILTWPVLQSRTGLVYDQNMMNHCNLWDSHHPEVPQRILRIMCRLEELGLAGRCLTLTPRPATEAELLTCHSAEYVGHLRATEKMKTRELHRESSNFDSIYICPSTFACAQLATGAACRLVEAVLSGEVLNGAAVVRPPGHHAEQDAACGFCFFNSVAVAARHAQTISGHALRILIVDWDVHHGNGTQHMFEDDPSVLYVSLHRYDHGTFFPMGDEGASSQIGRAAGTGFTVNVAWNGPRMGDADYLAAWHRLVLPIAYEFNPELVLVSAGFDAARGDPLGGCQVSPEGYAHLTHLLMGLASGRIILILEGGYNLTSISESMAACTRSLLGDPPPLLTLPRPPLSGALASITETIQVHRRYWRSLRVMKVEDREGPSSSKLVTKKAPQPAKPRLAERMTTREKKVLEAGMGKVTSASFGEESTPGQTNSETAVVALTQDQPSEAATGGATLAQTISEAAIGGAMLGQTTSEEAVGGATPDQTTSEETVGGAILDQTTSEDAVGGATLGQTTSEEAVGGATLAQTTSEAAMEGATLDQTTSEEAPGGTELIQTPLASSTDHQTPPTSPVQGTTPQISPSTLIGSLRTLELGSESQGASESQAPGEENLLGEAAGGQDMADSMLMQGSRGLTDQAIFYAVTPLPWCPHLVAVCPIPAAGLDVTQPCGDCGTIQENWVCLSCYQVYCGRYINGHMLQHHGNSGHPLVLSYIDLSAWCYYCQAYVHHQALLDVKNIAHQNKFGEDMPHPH
Description: Inhibition of HDAC6 (unknown origin) assessed as fluorescence intensity measured after 60 mins incubation at room temperature by trypsin-free microfluidic lab-on-a-chip assay.

In the next test the target is Histone deacetylase 2 (Homo sapiens, UniProt Q92769). Description: Inhibition of HDAC2 (unknown origin) assessed as fluorescence intensity measured after 60 mins incubation at room temperature by trypsin-free microfluidic lab-on-a-chip assay.
Histone deacetylase 2, sequence (Q92769 whole entry): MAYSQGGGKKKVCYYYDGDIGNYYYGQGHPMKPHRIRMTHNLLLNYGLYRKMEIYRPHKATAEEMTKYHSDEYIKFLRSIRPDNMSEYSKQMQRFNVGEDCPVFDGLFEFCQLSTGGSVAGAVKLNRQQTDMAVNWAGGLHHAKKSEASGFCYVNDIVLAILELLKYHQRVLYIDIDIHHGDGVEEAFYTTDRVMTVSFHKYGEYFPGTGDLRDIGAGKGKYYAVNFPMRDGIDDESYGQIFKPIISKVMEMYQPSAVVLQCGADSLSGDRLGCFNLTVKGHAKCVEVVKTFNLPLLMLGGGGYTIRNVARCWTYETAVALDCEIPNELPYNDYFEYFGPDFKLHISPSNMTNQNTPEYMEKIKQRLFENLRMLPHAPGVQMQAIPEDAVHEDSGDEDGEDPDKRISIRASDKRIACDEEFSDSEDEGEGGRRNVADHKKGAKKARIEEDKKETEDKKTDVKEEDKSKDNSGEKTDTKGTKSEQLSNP
Test [3] has as its target T4, Protein deacetylase HDAC6 (Homo sapiens) (UniProt Q9UBN7).
T4 sequence (whole entry): T3 sequence (Q9UBN7 whole entry)
Nature of the test: Inhibition of HDAC6 in human HeLa cells assessed as increase in acetylated alpha-tubulin measured after 24 hrs by Western blotting analysis. Format: cell-based.

The target in the next test is Histone deacetylase 5 (Homo sapiens, UniProt Q9UQL6). Nature of the test: Inhibition of HDAC5 (unknown origin) assessed as fluorescence intensity measured after 60 mins incubation at room temperature by trypsin-free microfluidic lab-on-a-chip assay.
Histone deacetylase 5, sequence (Q9UQL6 whole entry): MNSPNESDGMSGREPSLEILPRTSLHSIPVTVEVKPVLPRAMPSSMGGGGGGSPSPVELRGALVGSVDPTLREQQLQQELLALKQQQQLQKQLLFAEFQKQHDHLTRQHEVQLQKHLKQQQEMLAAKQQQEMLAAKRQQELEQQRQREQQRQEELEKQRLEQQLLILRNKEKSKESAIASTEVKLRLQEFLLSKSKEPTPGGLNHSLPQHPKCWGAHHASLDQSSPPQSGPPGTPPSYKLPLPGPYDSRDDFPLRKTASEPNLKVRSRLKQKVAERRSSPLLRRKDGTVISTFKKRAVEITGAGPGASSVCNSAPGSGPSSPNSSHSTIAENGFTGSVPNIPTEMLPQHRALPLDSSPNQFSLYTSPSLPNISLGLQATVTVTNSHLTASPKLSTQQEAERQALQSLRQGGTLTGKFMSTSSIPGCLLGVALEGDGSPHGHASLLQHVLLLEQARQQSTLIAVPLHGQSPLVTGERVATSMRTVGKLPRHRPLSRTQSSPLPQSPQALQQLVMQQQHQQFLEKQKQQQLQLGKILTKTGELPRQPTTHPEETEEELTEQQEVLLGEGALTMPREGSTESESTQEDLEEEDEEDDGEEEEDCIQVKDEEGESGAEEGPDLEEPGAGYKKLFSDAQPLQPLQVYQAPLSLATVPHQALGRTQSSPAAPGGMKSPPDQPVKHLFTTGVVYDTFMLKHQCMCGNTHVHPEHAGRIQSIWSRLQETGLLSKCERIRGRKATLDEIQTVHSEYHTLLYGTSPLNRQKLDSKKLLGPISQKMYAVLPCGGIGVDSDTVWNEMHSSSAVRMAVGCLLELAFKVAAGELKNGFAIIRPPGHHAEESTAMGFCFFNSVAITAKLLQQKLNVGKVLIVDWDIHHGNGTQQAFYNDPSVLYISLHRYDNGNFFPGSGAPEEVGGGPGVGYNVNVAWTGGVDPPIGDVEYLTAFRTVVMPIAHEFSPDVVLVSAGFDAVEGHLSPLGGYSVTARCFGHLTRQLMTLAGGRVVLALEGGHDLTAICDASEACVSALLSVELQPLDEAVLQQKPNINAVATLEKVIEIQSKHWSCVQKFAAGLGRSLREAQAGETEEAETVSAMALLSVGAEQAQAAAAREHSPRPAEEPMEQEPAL
In test [4] the target is T2, Histone deacetylase 3. Description: Inhibition of HDAC3 (unknown origin) assessed as fluorescence intensity measured after 60 mins incubation at room temperature by trypsin-free microfluidic lab-on-a-chip assay.
The next test concerns the target Histone deacetylase 1 (Homo sapiens, UniProt Q13547). Description: Inhibition of HDAC1 (unknown origin) assessed as fluorescence intensity measured after 60 mins incubation at room temperature by trypsin-free microfluidic lab-on-a-chip assay.
The target of the next test is Histone deacetylase 9 (Homo sapiens, UniProt Q9UKV0). Description: Inhibition of HDAC9 (unknown origin) assessed as fluorescence intensity measured after 60 mins incubation at room temperature by trypsin-free microfluidic lab-on-a-chip assay.
Histone deacetylase 9, sequence (Q9UKV0 whole entry): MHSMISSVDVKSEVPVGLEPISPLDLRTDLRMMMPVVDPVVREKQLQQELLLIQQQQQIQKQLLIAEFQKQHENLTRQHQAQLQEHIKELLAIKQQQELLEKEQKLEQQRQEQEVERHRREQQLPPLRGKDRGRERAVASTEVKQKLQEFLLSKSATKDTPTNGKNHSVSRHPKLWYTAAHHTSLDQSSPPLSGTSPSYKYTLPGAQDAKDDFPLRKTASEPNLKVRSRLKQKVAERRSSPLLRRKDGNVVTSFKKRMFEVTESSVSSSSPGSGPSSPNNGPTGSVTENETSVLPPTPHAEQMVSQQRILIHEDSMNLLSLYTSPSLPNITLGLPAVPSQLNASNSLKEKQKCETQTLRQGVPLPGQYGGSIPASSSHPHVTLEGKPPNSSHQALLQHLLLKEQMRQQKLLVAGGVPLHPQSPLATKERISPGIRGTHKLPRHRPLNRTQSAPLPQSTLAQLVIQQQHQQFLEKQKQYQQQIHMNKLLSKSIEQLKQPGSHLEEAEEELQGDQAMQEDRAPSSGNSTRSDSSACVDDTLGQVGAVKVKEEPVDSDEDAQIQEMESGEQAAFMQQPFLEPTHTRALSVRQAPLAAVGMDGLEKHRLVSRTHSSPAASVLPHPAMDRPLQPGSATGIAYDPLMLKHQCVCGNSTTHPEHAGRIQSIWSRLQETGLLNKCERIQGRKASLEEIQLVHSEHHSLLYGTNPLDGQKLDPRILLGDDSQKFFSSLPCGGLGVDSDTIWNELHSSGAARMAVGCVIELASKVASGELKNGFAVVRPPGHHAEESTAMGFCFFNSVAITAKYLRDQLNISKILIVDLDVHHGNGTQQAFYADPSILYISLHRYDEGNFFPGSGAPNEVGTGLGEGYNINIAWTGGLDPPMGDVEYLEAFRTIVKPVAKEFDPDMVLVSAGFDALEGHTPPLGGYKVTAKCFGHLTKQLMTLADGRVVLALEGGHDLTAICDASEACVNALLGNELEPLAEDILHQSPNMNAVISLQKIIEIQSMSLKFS

Histone deacetylase 1, sequence (Q13547 whole entry): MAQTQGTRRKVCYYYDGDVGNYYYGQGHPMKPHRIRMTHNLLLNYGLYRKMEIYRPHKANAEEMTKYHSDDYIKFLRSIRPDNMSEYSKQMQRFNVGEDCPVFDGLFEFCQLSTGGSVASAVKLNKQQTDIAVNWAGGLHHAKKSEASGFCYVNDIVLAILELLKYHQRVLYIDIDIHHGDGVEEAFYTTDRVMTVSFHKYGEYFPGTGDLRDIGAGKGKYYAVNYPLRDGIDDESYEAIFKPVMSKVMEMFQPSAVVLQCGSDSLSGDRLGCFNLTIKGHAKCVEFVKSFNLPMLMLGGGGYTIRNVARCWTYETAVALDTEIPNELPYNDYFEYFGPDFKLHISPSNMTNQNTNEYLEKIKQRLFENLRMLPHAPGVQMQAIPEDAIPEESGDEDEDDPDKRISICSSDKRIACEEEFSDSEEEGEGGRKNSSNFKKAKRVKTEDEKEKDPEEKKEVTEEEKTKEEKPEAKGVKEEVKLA

Turning to `O=C(NO)c1ccc(C(=O)NCCc2ccccc2)cc1`, the IC50 was 1150 nM on Histone deacetylase 8 and above 33300 nM at Histone deacetylase 4.
Regarding `O=C(NO)C1=CCCCC1`, the inhibition entry on Histone deacetylase 3 [1] was “inactive”. The half-inhibitory concentration (IC50) was 12 nM in test [2], 431 nM at Histone deacetylase 8, 1050 nM on Histone deacetylase 2 and 9130 nM at Histone deacetylase 4. For the same molecule, in [3], the inhibition entry was “Active”.
For `O=C(NO)c1ccccc1` [BENZOHYDROXAMATE], the inhibition result on Histone deacetylase 3 [1] was “inactive”. Besides, the half-maximal inhibitory concentration (IC50) is 115 nM in test [2]; 1920 nM at Histone deacetylase 8; 7910 nM on Histone deacetylase 2; above 33300 nM on Histone deacetylase 5; 7830 nM on Histone deacetylase 3 [4]; 4730 nM at Histone deacetylase 1. Besides, the IC50 at Histone deacetylase 4 and on Histone deacetylase 9 was above 33300 nM in each case. Also, the inhibition result in test [3] was “Active”.
Regarding `O=C(NO)c1ccc(C(=O)Nc2ccccc2)cc1`, the values for the IC50 (in [2]; on Histone deacetylase 8; on Histone deacetylase 4) were 37 nM, 689 nM and above 33300 nM, respectively.
With `O=C(NO)c1ccc(C(=O)NCc2ccccc2)cc1`, the 50% inhibitory concentration (IC50) was 7 nM in test [2], 1030 nM at Histone deacetylase 8, 381 nM at Histone deacetylase 2 and above 33300 nM at Histone deacetylase 4.
For `O=C(Cc1ccccc1)NO` [PHENYLACETOHYDROXAMIC ACID], the IC50 is 11600 nM at Histone deacetylase 8, above 33300 nM on Histone deacetylase 2 and above 33300 nM on Histone deacetylase 4.
Take `O=C(NO)C1CCCCC1`: the IC50 is 376 nM in test [2], 3720 nM at Histone deacetylase 8, above 33300 nM at Histone deacetylase 2 and above 33300 nM on Histone deacetylase 4.
Take `CN1CCN(CCNC(=O)c2ccc(C(=O)NO)cc2)CC1`: the half-maximal inhibitory concentration (IC50) was 1360 nM in test [2], 20900 nM at Histone deacetylase 8 and above 33300 nM on Histone deacetylase 4.
For `O=C(NO)c1ccc(C(=O)NCCc2ccncc2)cc1`, in that order: 8 nM, 1330 nM and above 33300 nM.
As to `O=C(/C=C/c1ccccc1)NO`, the IC50 in test [2] worked out at 22 nM; at Histone deacetylase 8 it was 759 nM; on Histone deacetylase 2, 457 nM; on Histone deacetylase 4, 19500 nM.
For `O=C(CCc1ccccc1)NO`, in that order: 448 nM, 2350 nM, 2720 nM and above 33300 nM.
Regarding `O=C(NO)C1=CCCC1`, the inhibition result on Histone deacetylase 3 [1] is “inactive”. Moreover, the 50% inhibitory concentration (IC50) in test [2] was 30 nM; on Histone deacetylase 8, 1090 nM; on Histone deacetylase 2 it was 1790 nM; on Histone deacetylase 5, 18300 nM; on Histone deacetylase 3 [4], 694 nM; at Histone deacetylase 1, 638 nM. For the same molecule, the IC50 on Histone deacetylase 4 was 21800 nM; on Histone deacetylase 9, above 33300 nM. Moreover, the inhibition entry in [3] is “Dose-dependent effect”.
`CNC(=O)c1ccc(C(=O)NO)cc1`: the inhibition result on Histone deacetylase 3 [1] was “inactive”. Also, the IC50 in [2] was 28 nM; at Histone deacetylase 8 it was 1950 nM; at Histone deacetylase 4, above 33300 nM. Moreover, the inhibition entry in test [3] was “Active”.
